Values quoted from earlier work, collected in patent US20120043242A1, “Medicinal cannabis fatty foodstuff” (priority 2010, published 2012).
Where two headings read alike, the source gives them in different places.

Experiments:
healthy individuals = healthy individuals / humans
people who use cannabis = settings: compared with the no cannabinoid and the TCH+CBD groups

SMILES	decarboxylation of concentrated THCA-A in solution into Δ^9-THC (120 degrees C.)	decarboxylation of concentrated THCA-A in solution into Δ^9-THC (140 degrees C.)	decarboxylation of concentrated THCA-A in solution into Δ^9-THC (160 degrees C.)	anxiety and psychotic symptoms (healthy individuals)	positive schizophrenia-like symptoms (people who use cannabis)	degradation of Δ^9-THC into cannabinol and dihydrocannabinol (160 degrees C.)	degradation of Δ^9-THC into cannabinol and dihydrocannabinol (180 degrees C.)
CCCCCc1cc2c(c(O)c1C(=O)O)[C@@H]1C=C(C)CC[C@H]1C(C)(C)O2 [THCA-A, tetrahydrocannabinol carboxylic acid]	Partial decarboxylation	Significant decarboxylation	Nearly complete decarboxylation				
C=C(C)[C@@H]1CCC(C)=C[C@H]1c1c(O)cc(CCCCC)cc1O [CBD, cannabidiol]				anxiolytic and to have antipsychotic properties			
CCCCCc1cc(O)c2c(c1)OC(C)(C)[C@@H]1CCC(C)=C[C@@H]21 [Δ^9-THC, Tetrahydrocannabinol]				elevate levels of anxiety and psychotic symptoms	higher levels	some degradation	A significant percentage
